From US20230295145A1, “PYRROLIDINE DERIVATIVES AND METHODS OF USE” (Genentech, Inc., priority 2020, published 2023)
Like-named read-outs stand apart in the source and are kept apart here.

Columns and labels:
VHL [1] = biological target: T1, VHL (Homo sapiens, UniProt P40337); test: VHL HEK-293 BRET Assay (VHL NanoBRET Target Engagement Assay); format: cell-based; conditions: HEK 293 RT VHL-NanoLuc stable cells
T1 construct: expressed in transfected cells

CAL-120 [2] = conditions: 10 µM
Procedure: (§1) Cell lines were cultured in RPMI-1640, 5% fetal bovine serum, and 2 mM glutamine in a humidified incubator maintained at 37° C. with 5% CO2. Cells were assessed with a Vi-CELL Cell Viability Analyzer (Beckman Coulter; Brea, CA); viability of at least 90% was required for screening. A Multidropä Combi Reagent Dispenser (Thermo Scientific; Waltham, MA) was used to plate cells into Falcons^â 384-well, black, clear-bottom plates (Catalog No. 353962; Corning; Tewksbury, MA) using seeding densities previous determined to achieve approximately 80% confluence at the final time point of the assay. The compounds were prepared at 1000× in advance using an Echo 555 liquid handler (Labcyte; Sunnyvale, CA) and stored in −80° C. until the day of compound addition. On the following day, cells were treated with compounds at final assay concentration 1 uM and 10 uM using a Bravo Automated Liquid-Handling Platform (Agilent; Santa Clara, CA). After 5 days, 25 mL CellTiter-Glo^â reagent was added using a MultiFloä Microplate Dispenser (BioTek; Winooski, VT). Cell lysis was induced by mixing for 30 minutes on an orbital shaker; plates were then incubated at room temperature for 10 minutes to stabilize the luminescent signal. Luminescence was read by a 2104 EnVision^â Multilabel Plate Reader (PerkinElmer; Waltham, MA).
(§2) The data was processed using Genedata Screener^â, Version 15 (Genedata; Basel, Switzerland) to assess compound effects on viability. Compound treated wells were normalized to the median value of 14 DMSO control wells on the same 384 well plate.

HCC1438 = test: Cell Viability Assay (CellTiter-Glo); format: cell-based; conditions: 10 μM, 5 days
Procedure: (§3) Cell lines were cultured in RPMI-1640, 5% fetal bovine serum, and 2 mM glutamine in a humidified incubator maintained at 37° C. with 5% CO2. Cells were assessed with a Vi-CELL Cell Viability Analyzer (Beckman Coulter; Brea, CA); viability of at least 90% was required for screening. A Multidropä Combi Reagent Dispenser (Thermo Scientific; Waltham, MA) was used to plate cells into Falcons^â 384-well, black, clear-bottom plates (Catalog No. 353962; Corning; Tewksbury, MA) using seeding densities previous determined to achieve approximately 80% confluence at the final time point of the assay. The compounds were prepared at 1000× in advance using an Echo 555 liquid handler (Labcyte; Sunnyvale, CA) and stored in −80° C. until the day of compound addition. On the following day, cells were treated with compounds at final assay concentration 1 uM and 10 uM using a Bravo Automated Liquid-Handling Platform (Agilent; Santa Clara, CA). After 5 days, 25 mL CellTiter-Glo^â reagent was added using a MultiFloä Microplate Dispenser (BioTek; Winooski, VT). Cell lysis was induced by mixing for 30 minutes on an orbital shaker; plates were then incubated at room temperature for 10 minutes to stabilize the luminescent signal. Luminescence was read by a 2104 EnVision^â Multilabel Plate Reader (PerkinElmer; Waltham, MA). […]

MDA-MB-436 = test: Cell Viability Assay (CellTiter-Glo); format: cell-based; conditions: 10 μM, 5 days
Procedure: as §3

SUIT-2 = test: Cell Viability Assay (CellTiter-Glo); format: cell-based; conditions: 10 μM, 5 days
Procedure: as §3

ABC-1 = test: Cell Viability Assay (CellTiter-Glo); format: cell-based; conditions: 10 μM, 5 days
Procedure: as §1, §2

NCI-H2030 = test: Cell Viability Assay (CellTiter-Glo); format: cell-based; conditions: 5 days
Procedure: as §1, §2

CAL-120 [3] = test: Cell Viability Assay (CellTiter-Glo); conditions: 5 days
Procedure: as §1, §2

HCC366 = test: Cell Viability Assay (CellTiter-Glo); format: cell-based; conditions: 5 days
Procedure: as §1, §2

KPL-4 = test: Cell Viability Assay (CellTiter-Glo); format: cell-based; conditions: 10 μM, 5 days
Procedure: as §3

KPL-1 = test: Cell Viability Assay (CellTiter-Glo); format: cell-based; conditions: 5 days
Procedure: as §1, §2

MCF-7 = test: Cell Viability Assay (CellTiter-Glo); format: cell-based; conditions: 10 μM, 5 days
Procedure: as §3

PANC-1 = test: Cell Viability Assay (CellTiter-Glo); format: cell-based; conditions: 5 days
Procedure: as §1, §2

VHL [4] = biological target: T1, VHL; test: VHL HEK-293 BRET Assay (VHL NanoBRET Target Engagement Assay); format: cell-based; conditions: IC50 values measured in the presence of digitonin; HEK 293 RT VHL-NanoLuc stable cells; read-out: IC50 + Digi (μM)*
KNS-62 = test: Cell Viability Assay (CellTiter-Glo); format: cell-based; conditions: 5 days
Procedure: as §1, §2

NCI-H1650 = test: Cell Viability Assay (CellTiter-Glo); format: cell-based; conditions: 10 μM, 5 days
Procedure: as §3

NCI-H23 = test: Cell Viability Assay (CellTiter-Glo); format: cell-based; conditions: 5 days
Procedure: as §1, §2

SW 620 = test: Cell Viability Assay (CellTiter-Glo); format: cell-based; conditions: 10 μM, 5 days
Procedure: as §3

T1 sequence (P40337 whole entry): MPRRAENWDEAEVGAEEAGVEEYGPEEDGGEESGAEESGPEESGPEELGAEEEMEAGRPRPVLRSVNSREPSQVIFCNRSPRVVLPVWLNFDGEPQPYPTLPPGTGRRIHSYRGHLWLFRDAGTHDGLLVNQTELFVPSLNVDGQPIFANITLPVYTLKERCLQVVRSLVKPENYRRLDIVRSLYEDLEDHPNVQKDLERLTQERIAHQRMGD

Molecule | IC50 (VHL [1]; read-out: IC50) [µM] | Normalized viability % DMSO (HCC1438) [% DMSO] | Normalized viability % DMSO (MDA-MB-436) [% DMSO] | Normalized viability % DMSO (ABC-1) [% DMSO] | Normalized viability % DMSO (NCI-H2030; 1 μM) [% DMSO] | Normalized viability % DMSO (NCI-H2030; 10 μM) [% DMSO] | Normalized viability % DMSO (CAL-120 [3]; 10 μM) [% DMSO] | Normalized viability % DMSO (KPL-4) [% DMSO] | Normalized viability % DMSO (KPL-1; 10 μM) [% DMSO] | Normalized viability % DMSO (MCF-7) [% DMSO] | Normalized viability % DMSO (PANC-1; 1 μM) [% DMSO] | Normalized viability % DMSO (PANC-1; 10 μM) [% DMSO] | IC50 (VHL [4]) [µM] | Normalized viability % DMSO (KNS-62; 10 μM) [% DMSO] | Normalized viability % DMSO (NCI-H1650) [% DMSO] | Normalized viability % DMSO (NCI-H23; 1 μM) [% DMSO] | Normalized viability % DMSO (NCI-H23; 10 μM) [% DMSO] | also measured
(2S,4R)-N-[2-(4-bromoindol-1-yl)ethyl]-1-[(2S)-2-(4-cyclopropyltriazol-1-yl)-3,3-dimethyl-butanoyl]-4-hydroxy-pyrrolidine-2-carboxamide [Compound 469] | 0.21 |  |  |  |  |  |  |  |  |  |  |  |  |  |  |  |  | IC50 (VHL [1]; IC50 values measured in the presence of digitonin, read-out: IC50 + Digi (μM)*): 0.435 µM; Normalized viability % DMSO (CAL-120 [2]): 62.6 % DMSO
Cc1ncsc1-c1ccc(CNC(=O)[C@@H]2C[C@@H](O)CN2C(=O)[C@@H](n2cc(C3CC3)nn2)C(C)(C)C)cc1 [Compound 288, (2S,4R)-1-[(2S)-2-(4-cyclopropyltriazol-1-yl)-3,3-dimethyl-butanoyl]-4-hydroxy-N-[[4-(4-methylthiazol-5-yl)phenyl]methyl]pyrrolidine-2-carboxamide] | 0.00794 | 2.1 | 15.8 | 7.1 | 19.2 | 16.5 | 31.9 | 2.2 | 25.4 | 25.8 | 33.9 | 31.1 | 0.0132 | 26.4 | 27.7 | 8.6 | 6.7 | Normalized viability % DMSO (SUIT-2): 30.2 % DMSO; Normalized viability % DMSO (CAL-120 [3]; 1 μM): 31.1 % DMSO; Normalized viability % DMSO (HCC366; 1 μM): 43.0 % DMSO; Normalized viability % DMSO (HCC366; 10 μM): 22.5 % DMSO; Normalized viability % DMSO (KPL-1; 1 μM): 40.5 % DMSO; Normalized viability % DMSO (KNS-62; 1 μM): 44.3 % DMSO; Normalized viability % DMSO (SW 620): 28.2 % DMSO
CC(C)(C)[C@@H](C(=O)N1C[C@H](O)C[C@H]1C(=O)NC1CC12CCc1cc(Br)ccc12)n1cc(C2CC2)nn1 (stereo partly drawn) [Compound 266, (2S,4R)-N-(5′-bromospiro[cyclopropane-2,1′-indane]-1-yl)-1-[(2S)-2-(4-cyclopropyltriazol-1-yl)-3,3-dimethyl-butanoyl]-4-hydroxy-pyrrolidine-2-carboxamide] | 3.69 |  |  |  |  | 31.8 | 46.4 |  |  |  |  | 27.6 | 9.5 |  |  |  | 37.6 | 
CC(C)(NC(=O)[C@@H]1C[C@@H](O)CN1C(=O)[C@@H](n1cc(C2CC2)nn1)C(C)(C)C)C(=O)Nc1ccccc1 [Compound 480, (2S,4R)-N-(2-anilino-1,1-dimethyl-2-oxo-ethyl)-1-[(2S)-2-(4-cyclopropyltriazol-1-yl)-3,3-dimethyl-butanoyl]-4-hydroxy-pyrrolidine-2-carboxamide] | 0.135 | 11.3 | 23.6 | 38.1 | 32.4 | 5.6 | 15.5 | 38.4 | 47.9 | 13.7 | 38.1 | 22.7 | 6.66 | 8.7 | 12.6 | 37.0 | 8.2 | 
